In patent publication US9169254B2, “Spiroimidazolone derivative” (Chugai Seiyaku Kabushiki Kaisha, priority 2009, dated 2015):

Each molecule was assayed against T1, human PTH1 receptor (Homo sapiens, UniProt Q03431) (assay: In vitro cAMP signal activity in HKRK-B7 cells (LLC-PK1 cells overexpressing the human PTH1 receptor)). Details: HKRK-B7 cells; compound at 1×10^−3 M; cAMP produced as percentage of that produced by hPTH(1-34) at 100 nM.
T1 sequence (Q03431 27-593): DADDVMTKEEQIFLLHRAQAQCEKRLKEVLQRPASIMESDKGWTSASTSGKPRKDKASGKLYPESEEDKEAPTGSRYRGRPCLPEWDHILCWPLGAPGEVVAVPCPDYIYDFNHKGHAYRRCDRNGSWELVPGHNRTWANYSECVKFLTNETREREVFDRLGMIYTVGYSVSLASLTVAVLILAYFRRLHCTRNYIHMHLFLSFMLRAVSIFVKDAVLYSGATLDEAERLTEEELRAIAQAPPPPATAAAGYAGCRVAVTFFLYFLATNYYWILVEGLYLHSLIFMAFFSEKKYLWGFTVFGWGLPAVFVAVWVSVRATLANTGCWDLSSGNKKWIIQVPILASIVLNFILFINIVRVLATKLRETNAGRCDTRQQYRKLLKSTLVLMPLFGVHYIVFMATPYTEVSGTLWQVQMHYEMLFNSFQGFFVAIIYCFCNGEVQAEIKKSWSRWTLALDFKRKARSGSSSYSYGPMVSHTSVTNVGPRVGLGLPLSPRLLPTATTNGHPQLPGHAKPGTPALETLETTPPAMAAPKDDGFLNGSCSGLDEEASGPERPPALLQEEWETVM
Type: cell-based

| SMILES | cAMP production activity (%) |
| --- | --- |
| CN1CCCc2c(CCS(=O)(=O)N3CCC4(CC3)N=C(C3CCCCC3)NC4=O)cccc21 [Compound 747, 2-cyclohexyl-8-[2-(1-methyl-1,2,3,4-tetrahydro-quinolin-5-yl)-ethanesulfonyl]-1,3,8-triaza-spiro[4.5]dec-1-en-4-one] | 55 |
| O=C1NC(C2CCCCC2)=NC12CCN(S(=O)(=O)CCc1cccc3c1ccn3CCC(O)CO)CC2 (stereo not shown) [Compound 748, 2-cyclohexyl-8-{2-[1-(3,4-dihydroxy-butyl)-1H-indol-4-yl]-ethanesulfonyl}-1,3,8-triaza-spiro[4.5]dec-1-en-4-one] | 61 |
| Cc1cc(CCS(=O)(=O)N2CCC3(CC2)N=C(C2CCC(C)CC2)NC3=O)cc(C)c1N1C(=O)CNC1=O (stereo not shown) [Compound 749, 3-(2,6-dimethyl-4-{2-[2-(4-methyl-cyclohexyl)-4-oxo-1,3,8-triaza-spiro[4.5]dec-1-ene-8-sulfonyl]-ethyl}-phenyl)-imidazolidine-2,4-dione] | 77 |
| Cc1cc(CC(N)=O)ccc1CCS(=O)(=O)N1CCC2(CC1)N=C(C1CCC(C)CC1)NC2=O (stereo not shown) [Compound 750, 2-(3-Methyl-4-{2-[2-(4-methyl-cyclohexyl)-4-oxo-1,3,8-triaza-spiro[4.5]dec-1-ene-8-sulfonyl]-ethyl}-phenyl)-acetamide] | 87 |
| CCOc1cc(NC(C)=O)ccc1CCS(=O)(=O)N1CCC2(CC1)N=C(C1CCC(C)CC1)NC2=O (stereo not shown) [Compound 751, N-(3-ethoxy-4-{2-[2-(4-methyl-cyclohexyl)-4-oxo-1,3,8-triaza-spiro[4.5]dec-1-ene-8-sulfonyl]-ethyl}-phenyl)-acetamide] | 83 |
| CCc1cc(NC(C)=O)ccc1CCS(=O)(=O)N1CCC2(CC1)N=C(C1CCC(C)CC1)NC2=O (stereo not shown) [Compound 752, N-(3-ethyl-4-{2-[2-(4-methyl-cyclohexyl)-4-oxo-1,3,8-triaza-spiro[4.5]dec-1-ene-8-sulfonyl]-ethyl}-phenyl)-acetamide] | 79 |
| CCOCc1cc(NC(C)=O)ccc1CCS(=O)(=O)N1CCC2(CC1)N=C(C1CCC(C)CC1)NC2=O (stereo not shown) [Compound 753, N-(3-ethoxymethyl-4-{2-[2-(4-methyl-cyclohexyl)-4-oxo-1,3,8-triaza-spiro[4.5]dec-1-ene-8-sulfonyl]-ethyl}-phenyl)-acetamide] | 104 |
| COCc1cc(NC(C)=O)ccc1CCS(=O)(=O)N1CCC2(CC1)N=C(C1CCC(C)CC1)NC2=O (stereo not shown) [Compound 754, N-(3-methoxymethyl-4-{2-[2-(4-methyl-cyclohexyl)-4-oxo-1,3,8-triaza-spiro[4.5]dec-1-ene-8-sulfonyl]-ethyl}-phenyl)-acetamide] | 89 |
| COCCN(C(C)=O)c1ccc(CCS(=O)(=O)N2CCC3(CC2)N=C(C2CCC(CCC(F)(F)F)CC2)NC3=O)c(C)c1 (stereo not shown) [Compound 755, N-(2-methoxy-ethyl)-N-[3-methyl-4-(2-{4-oxo-2-[4-(3,3,3-trifluoro-propyl)-cyclohexyl]-1,3,8-triaza-spiro[4.5]dec-1-ene-8-sulfonyl}-ethyl)-phenyl]-acetamide] | 74 |
| COCCN(C(C)=O)c1cc(C)c(CCS(=O)(=O)N2CCC3(CC2)N=C(C2CCC(CCC(F)(F)F)CC2)NC3=O)c(C)c1 (stereo not shown) [Compound 756, N-[3,5-dimethyl-4-(2-{4-oxo-2-[4-(3,3,3-trifluoro-propyl)-cyclohexyl]-1,3,8-triaza-spiro[4.5]dec-1-ene-8-sulfonyl}-ethyl)-phenyl]-N-(2-methoxy-ethyl)-acetamide] | 79 |
| CC(=O)N(CCOCCF)c1ccc(CCS(=O)(=O)N2CCC3(CC2)N=C(C2CCC(CCC(F)(F)F)CC2)NC3=O)c(C)c1 (stereo not shown) [Compound 757, N-[2-(2-fluoro-ethoxy)-ethyl]-N-[3-methyl-4-(2-{4-oxo-2-[4-(3,3,3-trifluoro-propyl)-cyclohexyl]-1,3,8-triaza-spiro[4.5]dec-1-ene-8-sulfonyl}-ethyl)-phenyl]-acetamide] | 79 |
| CC(=O)N(CCOCCO)c1ccc(CCS(=O)(=O)N2CCC3(CC2)N=C(C2CCC(CCC(F)(F)F)CC2)NC3=O)c(C)c1 (stereo not shown) [Compound 758, N-[2-(2-hydroxy-ethoxy)-ethyl]-N-[3-methyl-4-(2-{4-oxo-2-[4-(3,3,3-trifluoro-propyl)-cyclohexyl]-1,3,8-triaza-spiro[4.5]dec-1-ene-8-sulfonyl}-ethyl)-phenyl]-acetamide] | 98 |
| CC(=O)N(C)c1cc(C)c(CCS(=O)(=O)N2CCC3(CC2)N=C(C2CCC(CCC(F)(F)F)CC2)NC3=O)c(C)c1 (stereo not shown) [Compound 759, N-[3,5-dimethyl-4-(2-{4-oxo-2-[4-(3,3,3-trifluoro-propyl)-cyclohexyl]-1,3,8-triaza-spiro[4.5]dec-1-ene-8-sulfonyl}-ethyl)-phenyl]-N-methyl-acetamide] | 79 |
| Cc1cc(N2C(=O)CN(C)C2=O)cc(C)c1CCS(=O)(=O)N1CCC2(CC1)N=C(C1CCC(CCC(F)(F)F)CC1)NC2=O (stereo not shown) [Compound 760, 3-[3,5-dimethyl-4-(2-{4-oxo-2-[4-(3,3,3-trifluoro-propyl)-cyclohexyl]-1,3,8-triaza-spiro[4.5]dec-1-ene-8-sulfonyl}-ethyl)-phenyl]-1-methyl-imidazolidine-2,4-dione] | 93 |
| Cc1cc(C(=O)N2CCN(CCF)CC2)cc(C)c1CCS(=O)(=O)N1CCC2(CC1)N=C(C1CCC(CCC(F)(F)F)CC1)NC2=O (stereo not shown) [Compound 761, 8-(2-{4-[4-(2-fluoro-ethyl)-piperazine-1-carbonyl]-2,6-dimethyl-phenyl}-ethanesulfonyl)-2-[4-(3,3,3-trifluoro-propyl)-cyclohexyl]-1,3,8-triaza-spiro[4.5]dec-1-en-4-one] | 104 |
| Cc1cc(N2CCOCC2=O)cc(C)c1CCS(=O)(=O)N1CCC2(CC1)N=C(C1CCC(CCC(F)(F)F)CC1)NC2=O (stereo not shown) [Compound 764, 8-{2-[2,6-dimethyl-4-(3-oxo-morpholin-4-yl)-phenyl]-ethanesulfonyl}-2-[4-(3,3,3-trifluoro-propyl)-cyclohexyl]-1,3,8-triaza-spiro[4.5]dec-1-en-4-one] | 124 |
| Cc1cc(N2CCOCC2=O)cc(C)c1CCS(=O)(=O)N1CCC2(CC1)N=C(C1CCC(C)CC1)NC2=O (stereo not shown) [Compound 765, 8-{2-[2,6-dimethyl-4-(3-oxo-morpholin-4-yl)-phenyl]-ethanesulfonyl}-2-(4-methyl-cyclohexyl)-1,3,8-triaza-spiro[4.5]dec-1-en-4-one] | 101 |
| CC(=O)N(CCOCCF)c1cc(C)c(CCS(=O)(=O)N2CCC3(CC2)N=C(C2CCC(CCC(F)(F)F)CC2)NC3=O)c(C)c1 (stereo not shown) [Compound 766, N-[3,5-dimethyl-4-(2-{4-oxo-2-[4-(3,3,3-trifluoro-propyl)-cyclohexyl]-1,3,8-triaza-spiro[4.5]dec-1-ene-8-sulfonyl}-ethyl)-phenyl]-N-[2-(2-fluoro-ethoxy)-ethyl]-acetamide] | 88 |
| Cc1cc(N2C(=O)NC(C)C2=O)cc(C)c1CCS(=O)(=O)N1CCC2(CC1)N=C(C1CCC(C)CC1)NC2=O (stereo not shown) [Compound 767, 3-(3,5-dimethyl-4-{2-[2-(4-methyl-cyclohexyl)-4-oxo-1,3,8-triaza-spiro[4.5]dec-1-ene-8-sulfonyl]-ethyl}-phenyl)-5-methyl-imidazolidine-2,4-dione] | 83 |
